In ChEMBL document CHEMBL1201862, “PubChem BioAssay data set” (2004):
Active and inactive are the calls of the source.

Key:
Exodeoxyribonuclease V = biological target: T1, Exodeoxyribonuclease V (Escherichia coli (strain K12), UniProt P04993+P07648+P08394); experiment: E. coli RecBCD inhibitors, dose response, counter-screen for AddAB inhibitor project, absorbance, V66 E. coli, mutant T4 phage (AID 492957); assay type: functional, cell-based, Escherichia coli str. K-12 substr. MG1655
T1 sequence (P04993 whole entry): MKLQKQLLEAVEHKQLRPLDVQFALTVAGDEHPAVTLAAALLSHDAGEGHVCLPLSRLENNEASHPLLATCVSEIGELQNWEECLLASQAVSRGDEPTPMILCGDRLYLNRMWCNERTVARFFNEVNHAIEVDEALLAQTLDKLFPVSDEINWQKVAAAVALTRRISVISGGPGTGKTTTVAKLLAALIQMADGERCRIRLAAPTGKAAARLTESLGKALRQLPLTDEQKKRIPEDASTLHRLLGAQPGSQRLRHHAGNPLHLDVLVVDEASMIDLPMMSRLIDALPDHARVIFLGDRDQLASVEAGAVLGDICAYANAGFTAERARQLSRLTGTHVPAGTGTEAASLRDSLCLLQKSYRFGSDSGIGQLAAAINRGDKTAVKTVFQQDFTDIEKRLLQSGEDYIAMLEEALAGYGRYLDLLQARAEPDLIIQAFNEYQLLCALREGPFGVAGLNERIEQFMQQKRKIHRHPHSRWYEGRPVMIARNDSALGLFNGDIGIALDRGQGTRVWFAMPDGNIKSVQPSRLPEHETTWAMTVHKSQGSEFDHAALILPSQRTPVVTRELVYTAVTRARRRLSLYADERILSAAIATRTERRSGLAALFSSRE
T1 sequence (P07648 whole entry): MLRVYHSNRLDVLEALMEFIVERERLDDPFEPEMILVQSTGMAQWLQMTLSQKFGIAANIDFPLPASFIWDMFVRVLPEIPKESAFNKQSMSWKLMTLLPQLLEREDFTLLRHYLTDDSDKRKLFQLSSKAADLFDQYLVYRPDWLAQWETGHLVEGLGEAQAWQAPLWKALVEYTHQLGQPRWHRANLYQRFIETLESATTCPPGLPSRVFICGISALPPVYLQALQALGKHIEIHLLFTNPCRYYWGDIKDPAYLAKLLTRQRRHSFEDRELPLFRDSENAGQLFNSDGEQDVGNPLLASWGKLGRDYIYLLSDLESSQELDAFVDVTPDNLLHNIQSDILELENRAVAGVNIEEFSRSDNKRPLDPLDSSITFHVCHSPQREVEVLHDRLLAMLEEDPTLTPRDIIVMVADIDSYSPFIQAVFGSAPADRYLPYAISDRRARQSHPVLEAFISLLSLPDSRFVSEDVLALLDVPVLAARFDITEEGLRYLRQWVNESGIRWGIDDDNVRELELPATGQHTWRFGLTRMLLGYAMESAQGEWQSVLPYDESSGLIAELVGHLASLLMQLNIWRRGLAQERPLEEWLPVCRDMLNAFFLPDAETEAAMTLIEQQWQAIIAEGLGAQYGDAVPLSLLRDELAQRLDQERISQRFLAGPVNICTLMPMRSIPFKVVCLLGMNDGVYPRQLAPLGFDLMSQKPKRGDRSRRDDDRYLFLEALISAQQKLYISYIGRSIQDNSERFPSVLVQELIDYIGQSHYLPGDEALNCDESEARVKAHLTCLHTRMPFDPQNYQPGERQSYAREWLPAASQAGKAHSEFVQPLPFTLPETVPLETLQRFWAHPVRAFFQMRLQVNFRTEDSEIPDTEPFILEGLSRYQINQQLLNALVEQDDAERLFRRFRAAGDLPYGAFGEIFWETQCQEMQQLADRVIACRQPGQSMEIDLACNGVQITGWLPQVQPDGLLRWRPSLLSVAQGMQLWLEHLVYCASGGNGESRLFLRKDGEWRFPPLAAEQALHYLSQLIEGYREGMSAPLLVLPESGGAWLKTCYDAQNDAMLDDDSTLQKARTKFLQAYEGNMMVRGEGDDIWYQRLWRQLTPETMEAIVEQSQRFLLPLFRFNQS
T1 sequence (P08394 whole entry): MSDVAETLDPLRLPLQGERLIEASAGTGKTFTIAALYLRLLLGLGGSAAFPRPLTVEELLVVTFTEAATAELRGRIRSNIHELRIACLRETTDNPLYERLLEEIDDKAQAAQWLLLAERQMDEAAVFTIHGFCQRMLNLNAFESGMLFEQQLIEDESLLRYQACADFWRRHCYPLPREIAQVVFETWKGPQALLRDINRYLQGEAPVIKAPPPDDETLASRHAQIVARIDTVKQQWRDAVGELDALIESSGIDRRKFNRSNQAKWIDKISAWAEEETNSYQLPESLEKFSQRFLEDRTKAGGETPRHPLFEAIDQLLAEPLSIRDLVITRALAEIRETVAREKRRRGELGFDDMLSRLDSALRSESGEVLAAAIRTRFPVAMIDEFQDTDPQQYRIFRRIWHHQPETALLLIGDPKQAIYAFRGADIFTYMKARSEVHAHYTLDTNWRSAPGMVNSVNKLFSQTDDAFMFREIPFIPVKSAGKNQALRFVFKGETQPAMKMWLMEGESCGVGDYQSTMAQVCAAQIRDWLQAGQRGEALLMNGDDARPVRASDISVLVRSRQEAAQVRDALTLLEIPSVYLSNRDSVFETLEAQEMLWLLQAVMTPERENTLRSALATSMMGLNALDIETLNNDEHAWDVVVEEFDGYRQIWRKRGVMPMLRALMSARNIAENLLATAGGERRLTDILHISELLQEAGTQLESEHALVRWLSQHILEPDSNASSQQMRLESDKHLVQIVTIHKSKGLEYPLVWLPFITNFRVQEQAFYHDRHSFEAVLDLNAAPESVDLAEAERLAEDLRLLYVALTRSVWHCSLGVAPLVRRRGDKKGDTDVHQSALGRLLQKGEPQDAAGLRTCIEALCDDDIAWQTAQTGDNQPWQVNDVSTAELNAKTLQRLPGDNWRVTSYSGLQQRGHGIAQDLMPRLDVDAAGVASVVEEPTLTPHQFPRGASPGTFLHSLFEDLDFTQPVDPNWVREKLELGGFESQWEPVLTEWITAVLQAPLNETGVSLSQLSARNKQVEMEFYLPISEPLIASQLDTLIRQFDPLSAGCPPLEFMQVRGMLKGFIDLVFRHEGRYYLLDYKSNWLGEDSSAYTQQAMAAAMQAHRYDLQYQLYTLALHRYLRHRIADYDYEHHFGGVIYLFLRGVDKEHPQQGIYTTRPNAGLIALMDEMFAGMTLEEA

[1] = biological target: T2, Sentrin-specific protease 8 (Homo sapiens, UniProt Q96LD8); assay type: functional;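 note: luminescence read-out of SENP8 inhibition, dose-response confirmation following an ultra-high-throughput screen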
T2 sequence (Q96LD8 whole entry): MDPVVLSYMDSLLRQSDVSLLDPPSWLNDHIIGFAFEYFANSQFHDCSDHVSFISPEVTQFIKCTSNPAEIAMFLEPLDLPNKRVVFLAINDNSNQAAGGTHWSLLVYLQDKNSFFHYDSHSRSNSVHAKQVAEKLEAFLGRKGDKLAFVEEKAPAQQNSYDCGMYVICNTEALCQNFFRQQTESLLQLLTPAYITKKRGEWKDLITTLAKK

O=[N+]([O-])c1ccc(N/N=C/c2ccc[nH]2)cc1
IC50 (Exodeoxyribonuclease V): > 119 µM (inactive)

CC(=O)N(/N=C1\Sc2ccccc2C1=O)c1cccc(C)c1
IC50 [1]: 11.7 µM (active)
